From patent publication US20230140397A1, “ANTI-PSMA ANTIBODY-EXATECAN ANALOGUE CONJUGATE AND MEDICAL USE THEREOF” (JIANGSU HENGRUI PHARMACEUTICALS CO., LTD., priority 2020, published 2023)

Experiments:
Test in all cases: Cell proliferation inhibition assay (ATP, CellTiter-Glo)
Assay type in all cases: cell-based
PC-3 cells = details: Homo sapiens, 120 h; PC-3, 5 days, 4.5% FBS; read-out: Effect on cell killing (IC50)
Procedure: (§1) In this experiment, the content of ATP in the cells was detected, and the inhibitory effect of the PSMA ADC on the proliferation of cells (ATCC, LNCaP/CRL-1740, 22Rv1/CRL-2505 and PC-3/CRL-1435) was evaluated according to the IC50 values.
(§2) Then 20 μL of the dilution was added to the above cell plate, and incubated in an incubator (37° C., 5% CO2) for 5 days. The compound 2-B (i.e., free toxin of 9-A) was diluted into a stock solution with DSMO, which was then prepared into an initial concentration of 200 μM with PBS, and diluted in a gradient dilution ratio of 1:6 with PBS to obtain 9 concentration points, and an additional 0 concentration point was set. Then 1 μL of the dilution was added to 20 μL of RPMI-1640, and the mixture was transferred to a 96-well culture plate, and incubated in an incubator (37° C., 5% CO2) for 5 days. In the 96-well culture plate, 80 μL of CellTiter-Glo reagent was added to each well, and the plate was incubated at room temperature for 10-15 min away from the light. The chemiluminescence signal values were read on Victor3, and the data were processed using GraphPad software.
PC-3 cells were cultured in an F-12K medium containing 10% FBS, and passaged 2-3 times a week in a passage ratio of 1:3 or 1:6. During passaging, the medium was removed by pipetting, and the cell layer was rinsed with 5 mL of 0.25% pancreatin. […]

22Rv1 cells = details: Homo sapiens, 120 h; 22RV1, 5 days, 4.5% FBS; read-out: Effect on cell killing (IC50)
Procedure: as §1, §2
22Rv1 cells were cultured in an RPMI-1640 medium containing 10% FBS, and passaged twice a week in a passage ratio of 1:3 or 1:6. During passaging, the medium was removed by pipetting, and the cell layer was rinsed with 5 mL of 0.25% pancreatin. […]

LNCaP cells = details: Homo sapiens, 120 h, 5 days, 4.5% FBS, read-out: Effect on cell killing (IC50)
Procedure: as §1
LNCaP cells were cultured in an RPMI-1640 medium containing 10% FBS, and passaged 2-3 times a week in a passage ratio of 1:3 or 1:6. During passaging, the medium was removed by pipetting, and the cell layer was rinsed with 5 mL of 0.25% pancreatin. Then the pancreatin was removed by pipetting, the cells were digested in an incubator for 3-5 min, and then a fresh medium was added to resuspend cells. To a 96-well culture plate were added 180 μL of cell suspension at a density of 2×10^3 cells/well and an RPMI-1640 medium containing 4.5% FBS, and to the periphery of the 96-well plate was only added the medium. The plate was incubated in an incubator for 24 h (37° C., 5% CO2).
Then 20 μL of the dilution was added to the above cell plate, and incubated in an incubator (37° C., 5% CO2) for 5 days. […] The chemiluminescence signal values were read on Victor3, and the data were processed using GraphPad software.

Question: For CC[C@@]1(O)C(=O)OCc2c1cc1n(c2=O)Cc2c-1nc1cc(F)c(C)c3c1c2[C@@H](NC(=O)[C@H](O)C1CC1)CC3 [Compound 2-B, (R)-2-cyclopropyl-N-((1S,9S)-9-ethyl-5-fluoro-9-hydroxy-4-methyl-10,13-dioxo-2,3,9,10,13,15-hexahydro-1H,12H-benzo[de]pyrano[3′,4′:6,7]indolizino[1,2-b]quinolin-1-yl)-2-hydroxyacetamide], which IC50 (PC-3 cells) is on record?
Answer: 8.33 nM

Question: What about the IC50 (22Rv1 cells) of the same compound?
Answer: 2.84 nM

Question: And the IC50 (LNCaP cells)?
Answer: 1.7 nM
